Publication PMC8968952, “Modulation of ERCC1-XPF Heterodimerization Inhibition via Structural Modification of Small Molecule Inhibitor Side-Chains” (Frontiers in Oncology, 2022)

What was measured:
[1] = biological target: T1, ERCC1-XPF heterodimer in A549 cells (Homo sapiens, UniProt Q92889); design: method as in PMID 33399940; details: cited from earlier work; for PLA: inhibition of the interaction between ERCC1 and XPF (in words): A549 cells treated with 20 μM cisplatin and 1 μM inhibitor
T1 construct: endogenous in cells; host or cells: A549
T1 sequence (Q92889 1-916): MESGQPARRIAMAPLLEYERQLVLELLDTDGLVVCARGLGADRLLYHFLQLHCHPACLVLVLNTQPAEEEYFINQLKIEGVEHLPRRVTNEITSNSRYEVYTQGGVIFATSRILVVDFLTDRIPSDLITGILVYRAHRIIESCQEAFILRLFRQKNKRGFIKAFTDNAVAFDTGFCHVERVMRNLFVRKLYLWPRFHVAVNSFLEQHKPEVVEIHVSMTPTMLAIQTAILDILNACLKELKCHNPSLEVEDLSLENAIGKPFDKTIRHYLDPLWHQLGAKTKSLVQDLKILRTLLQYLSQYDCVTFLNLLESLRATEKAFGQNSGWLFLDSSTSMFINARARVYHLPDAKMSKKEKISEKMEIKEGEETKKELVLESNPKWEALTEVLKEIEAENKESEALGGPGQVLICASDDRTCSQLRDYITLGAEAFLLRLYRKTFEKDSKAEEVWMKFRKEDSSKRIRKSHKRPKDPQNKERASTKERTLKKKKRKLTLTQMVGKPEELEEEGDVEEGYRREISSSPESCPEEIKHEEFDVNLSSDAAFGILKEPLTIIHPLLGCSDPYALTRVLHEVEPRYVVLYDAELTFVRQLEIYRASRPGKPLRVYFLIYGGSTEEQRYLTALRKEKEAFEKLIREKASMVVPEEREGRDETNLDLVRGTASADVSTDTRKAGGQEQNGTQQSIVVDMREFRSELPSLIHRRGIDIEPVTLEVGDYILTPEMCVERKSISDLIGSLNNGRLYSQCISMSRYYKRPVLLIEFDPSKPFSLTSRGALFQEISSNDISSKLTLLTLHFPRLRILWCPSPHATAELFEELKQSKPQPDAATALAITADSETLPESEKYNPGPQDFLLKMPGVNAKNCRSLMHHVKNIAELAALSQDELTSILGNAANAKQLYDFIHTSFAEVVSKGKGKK

ERCC1-XPF = biological target: T2, ERCC1-XPF (Homo sapiens, UniProt Q92889); assay: Microplate fluorescence incision assay (endonuclease activity); format: biochemical; details: 10 μM inhibitor, 10 min preincubation
T2 construct: the final purity of the full-length ERCC1-XPF heterodimer was determined to be ~35%; His6; made in house; host or cells: E. coli BL21(DE3)
T2 sequence (Q92889 1-916): T1 sequence (Q92889 1-916)
From the text: Recombinant human ERCC1–XPF wild-type protein (containing polyhistidine (His-6) tags) was expressed from a bicistronic plasmid (kindly provided by Dr. Richard Wood, University of Texas MD Anderson Cancer Center, Smithville, TX) in the E. coli BL21(DE3) strain, Following previously described procedures ([70], [78]) the proteins extracted from E. coli were eluted from a ProBond Nickel-Chelating Resin (Thermo Fisher Scientific) and then a Hi-trap heparin column (GE Healthcare). Fractions containing ERCC1–XPF were dialyzed, concentrated, and stored at −80°C in 10 mM HEPES, pH 7.4, 2.5 mM β-mercaptoethanol, 0.01% CHAPS, 0.25 mM EDTA, 50% glycerol, and 25 mM NaCl. Based on polyacrylamide gel separation and Coomassie Blue staining, the final purity of the full-length ERCC1-XPF heterodimer was determined to be ~35%.
We employed a previously described protocol ([60], [70], [78]) in which the incision of the stem–loop substrate [6-FAM-5′-[…](20T)[…]-3′-dabcyl] (100 nM in 50 mM Tris-HCl, pH 8, 20 mM NaCl, 0.5 mM DDT, and 0.75 mM MnCl2) mediated by ERCC1-XPF (25 ng) in a total volume of 20 μL at 25°C was monitored by fluorescence using a FLUOstar Optima fluorimeter (BMG Labtech) with Optima software and excitation and emission wavelengths of 485 and 520 nm, respectively, for 5.5 min. The final concentration of inhibitor in the reaction was 10 μM prepared from a 200 μM stock solution in DMSO. With a molecular weight of 151 KDa for the XPF-ERCC1 heterodimer, a concentration of 25 ng of protein in 20 µl reaction buffer and a purity of 35%, the molar concentration of the enzyme was estimated to be 2.9 nM. Data were plotted using Microsoft Excel 2016.
An in vitro fluorescence-based assay was used to assess the ability of the synthesized compounds to inhibit the endonuclease activity of ERCC1-XPF. This assay has been previously described ([60], [70], [78]) and makes use of a stem-loop DNA substrate with a 5’-FAM fluorescent dye, and a 3’-dabcyl quencher. When ERCC1-XPF can cleave the DNA substrate, a 5’-FAM containing molecule is liberated from the stem-loop (and the quencher) and the fluorescence of the solution increases. The increase of the fluorescence of the solution can be observed in Figure 3A , in the absence of any inhibitor. To determine the influence of the inhibitory compounds, the protein was preincubated for 10 minutes with 10 μM of each inhibitor prior to addition of the substrate.

HCT-116 cells [2] = assay: Cellular repair of cyclobutane pyrimidine dimers (cellular NER) after UVC; format: cell-based, human; details: 2 μM
Protocol: We followed the protocol of Mirzayans et al. ([79]) with minor modifications as previously described ([70]). Inhibitor compounds were dissolved in DMSO and applied to a final DMSO concentration of 0.2% in media and 0.2% DMSO was used as the vehicle control. Mouse anti-thymine dimer monoclonal antibody (cat. no. MC-062, Kamiya Biomedical Company, Seattle, WA) was used for the immunofluorescence following UVC irradiation of the cells and fluorescent microscopic evaluation and measurement of fluorescence intensity were performed using MetaXpress, version 6.2.1.704, software (Molecular Devices, Sunnyvale, California). Data were plotted using GraphPad Prism version 5.04 software.
Immunofluorescent detection of cyclobutane pyrimidine dimers (CPD) generated in the DNA of HCT-116 cells after exposure to UVC radiation was used to measure NER. Our observations that approximately 80% of CPD were removed 24 hours post irradiation in the absence of any inhibitors mirrors previous observations ([70], [79]).

HCT-116 cells [3] = assay: Clonogenic survival assay, UV treatment; format: cell-based, human; details: 0.5 μM
Protocol: HCT-116 cells (100–800 cells depending on the UV dose) were plated in triplicate in 60-mm Petri dishes in DMEM/F12 medium. Following overnight attachment of the cells in a humidified atmosphere containing 5% CO2 at 37°C, the cells were treated with 0.5 μM compound 6 or 10 in DMSO (as described in section 2.7) for 4 h before the medium was removed, and the cells exposed to increasing doses (0–10 J/m^2) of UV-C radiation. The cells were then cultured for a further 24 h in the presence of inhibitor and then for an additional 9 days in the absence of inhibitor to allow for colony formation. Colonies were stained with crystal violet and counted using a Colcount instrument (Oxford Optronix, Abingdon UK) to facilitate determination of plating efficiency and surviving fraction. Data were plotted using GraphPad Prism version 5.04 software.

HCT-116 cells [4] = assay: Clonogenic survival assay, cyclophosphamide treatment; format: cell-based, human
Protocol: […] The medium was then replaced with drug and inhibitor-free fresh medium. After incubation for another 9 days to allow for colony formation, the plates were stained with crystal violet, colonies were counted, and plating efficiency and surviving fraction were calculated. Data were plotted using GraphPad Prism version 5.04. software.

In the case of `COc1ccc2nc3cc(Cl)ccc3c(Nc3ccc(O)c(CN4CCN(C)CC4)c3)c2c1` [Compound 1], the “PLA: inhibition of the interaction between ERCC1 and XPF (in words)” value [1] is given as “clear inhibition of the interaction between ERCC1 and XPF”.
In the case of `CN(C)CCN1CCN(Cc2cc(Nc3c4ccc(Cl)cc4nc4ccc(O)cc34)ccc2O)CC1` [Compound 5], the “PLA: inhibition of the interaction between ERCC1 and XPF (in words)” value [1] is listed as “clear inhibition of the interaction between ERCC1 and XPF” and the “PLA: disruption of ERCC1-XPF heterodimerization (in words)” value ([1]; A549 not treated with cisplatin, 1 μM inhibitor) is listed as “significant disruption of ERCC1-XPF heterodimerization”.
With `COc1ccc2nc3cc(Cl)ccc3c(Nc3ccc(O)c(CN4CCN(CCCN(C)C5Cc6ccccc6C5)CC4)c3)c2c1` [Compound 8] the “inhibition of ERCC1-XPF endonuclease activity (in words, vs control and 4)” value (“inhibition … (in words, vs control and 4)” for short) (ERCC1-XPF) was “some inhibition of ERCC1-XPF endonuclease activity”.
For `COc1ccc2nc3cc(Cl)ccc3c(Nc3ccc(O)c(CN4CCN(CCNCc5ccccc5)CC4)c3)c2c1` [Compound 10], the “inhibition … (in words, vs control and 4)” value (ERCC1-XPF) was “some inhibition of ERCC1-XPF endonuclease activity”, the “effect on CPD removal / cellular NER (in words)” value (HCT-116 cells [2]) was “no significant effect on CPD removal” and the “sensitization to UVC radiation (in words)” value (HCT-116 cells [3]) was “no sensitization of HCT-116 to UVC radiation”. For the same compound, the “sensitization to cyclophosphamide (in words)” value (HCT-116 cells [4]; 0.5 μM 6, 10 at 1.0 μM or 0.5 μM) was “no significant sensitization of HCT-116 cells to cyclophosphamide”.
In the case of `COc1ccc2nc3cc(Cl)ccc3c(Nc3ccc(O)c(CN4CCN(CCNCc5cccs5)CC4)c3)c2c1` [Compound 11], the “inhibition … (in words, vs control and 4)” value (ERCC1-XPF) is reported as “some inhibition of ERCC1-XPF endonuclease activity”.
With `CNC(=O)C(C)(C)CN1CCN(Cc2cc(Nc3c4ccc(Cl)cc4nc4ccc(OC)cc34)ccc2O)CC1` [Compound 12] the “inhibition … (in words, vs control and 4)” value (ERCC1-XPF) was “some inhibition of ERCC1-XPF endonuclease activity”.
For `COCCN1CCN(Cc2cc(Nc3c4ccc(Cl)cc4nc4ccc(OC)cc34)ccc2O)CC1` [Compound 15], the “inhibition … (in words, vs control and 4)” value (ERCC1-XPF) was “some inhibition of ERCC1-XPF endonuclease activity”.
With `O=P1(N(CCCl)CCCl)NCCCO1` (stereo not drawn) [cyclophosphamide, reference compound] the “cell survival, cyclophosphamide alone” value (HCT-116 cells [4]; 50 μM cyclophosphamide, no inhibitor) was 91.5%.
